Entries after “also recorded” stand apart in the source; their conditions may differ.

What all share (type): in vivo
One test deals with HPV45 pseudovirions. In words: Cutaneous HPV challenge with HPV45 pseudovirions (luciferase reporter). As to conditions: BALB/c mice vaccinated s.c. three times, luminescence 72 hrs post-challenge. The procedure:
(§1) Immunization of mice. All animal experimental work was done in accordance with Johns Hopkins Medical Institutions Animal Care and Use Committee guidelines. BALB/c and C57BL/6 (NCI, Frederick, Md.) wild type or MyD88 (D. Golenbock, UMass Medical Center, […], Mass.), CD40, or MHCII deficient mice (Jackson Laboratories, Bar Harbor, Me.) were used. Mice aged 4-6 wks were immunized with P25-P2C-HPV vaccine or various controls. All vaccine and control peptides were dissolved in phosphate-buffered saline (PBS). Mice received two booster immunizations at 4 wks and 8 wks after priming immunization in the same fashion and dose. (i) subcutaneous (s.c.): Each mouse was administered 20 nmols of vaccine in a total volume of 100 μL or an equivalent amount of several control preparations at the base of the tail. (ii) intranasal (i.n.): Anesthesia induction was accomplished within 3 to 5 mins using a chamber filled with 2.5% isoflurane (Baxter, Deerfield, Ill.). While anesthetized, each mouse was administered 20 nmols of lipopeptide in a total volume of 50 μL of vaccine or an equivalent amount of several control preparations via controlled micropipetting into the nares.
(§2) Cutaneous HPV challenge. […] Equal areas encompassing the site of virus inoculation were analyzed using Living Image 2.20 software (Xenogen), and background was determined by challenge with non-infectious HPV pseudovirions lacking L2.
In general terms: In a reporter assay the amount or activity of a reporter protein is the signal.

In a further test the test system is HPV16 pseudovirions. Description: Cutaneous HPV challenge with HPV16 pseudovirions (luciferase reporter). As to conditions: BALB/c mice vaccinated s.c. three times, bioluminescence 3 days post-challenge. The procedure:
as §1, §2

Another test has as its system HPV16 L2 17-36. Description: HPV16 L2 17-36 peptide ELISA of sera from immunized mice. The settings on record: mice vaccinated s.c. or i.n.; compared with saline controls. The procedure:
as §1
Collection and quantification of HPV specific antibody responses. […] Presence of serum antibodies against HPV16 was assessed by enzyme-linked immunosorbent assays (ELISA). […]

Turning to “QLYKTCKQAGTCPPDIIPKV (listed as Human papillomavirus) [HPV16 L2 17-36 peptide]”, the “protection from cutaneous challenge with HPV45 pseudovirions” value in the test on HPV45 pseudovirions was “did not protect”. Besides, in the test on HPV16 pseudovirions, the “protection from cutaneous challenge with HPV16 pseudovirions” value is “failed to protect the mice”. Further, the “L2-specific antibody (immune) response by ELISA” value in the test with HPV16 L2 17-36 was “immune responses similar to saline controls; also recorded: failed to induce an L2-specific antibody response”.
Take “HPV16 L1 VLP: virus-like particles of HPV16 major capsid protein L1, control vaccine”: the “protection from cutaneous challenge with HPV45 pseudovirions” value with HPV45 pseudovirions is listed as “did not protect”. The “protection from cutaneous challenge with HPV16 pseudovirions” value in the test with HPV16 pseudovirions is on record as “protected mice from cutaneous challenge”.

Source of the values: patent US9138470B2, “Multi-component L2 vaccine for prevention of human papilloma virus infection” (The Johns Hopkins University, priority 2007, dated 2015).
